The target of series [1] is T1, Macrophage migration inhibitory factor (Homo sapiens, UniProt P14174).
T1 sequence (P14174 whole entry): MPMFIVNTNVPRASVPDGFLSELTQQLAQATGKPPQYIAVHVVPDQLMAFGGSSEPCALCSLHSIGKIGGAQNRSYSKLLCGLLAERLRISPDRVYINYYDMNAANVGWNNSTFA
In words: Inhibition of human cloned MIF tautomerase activity expressed in Escherichia coli assessed as conversion of L-dopachrome methyl ester to indolecarboxylic acid methyl ester measured for 20 secs.

The target in series [2] is Macrophage migration inhibitory factor (Mus musculus) (UniProt P34884). As to the kind of experiment: Inhibition of MIF-induced NF-kappaB nuclear translocation in mouse RAW264.7 cells at 100 uM pretreated for 30 mins before […] stimulation measured after 2 hrs by autoradiography. Type of series: cell-based.
The target is the same in series [3]. In words: Inhibition of MIF-induced NF-kappaB nuclear translocation in mouse RAW264.7 cells assessed as inhibition of iNOS expression at 50 uM pretreated for 30 mins measured after 24 hrs by fluorescence spectrophotometry. Type of series: cell-based.
Series [4] shares this target. As to the kind of experiment: Inhibition of MIF-induced nitric oxide production in mouse RAW264.7 cells at 50 uM pretreatment by Griess assay. Type of series: cell-based. Background: Nitrite, measured by Griess reagent, commonly stands in for NO production.
Series [5] is described as follows: Cytotoxicity against rat gastric mucosal cells assessed as cell viability at 200 uM after 24 hrs by MTT assay. In kind it is cell-based, Gastric mucosa. For orientation: Formazan colour is commonly taken as a measure of viable cells.
Series [6] has as its system RAW264.7. In words: Cytotoxicity against mouse RAW264.7 cells assessed as cell viability at 200 uM after 24 hrs by MTT assay. Particulars: raw264.7, 24 h. In kind it is cell-based.
The target in series [7] is Macrophage migration inhibitory factor (Mus musculus) (UniProt P34884). As to the kind of experiment: Inhibition of MIF-induced NF-kappaB nuclear translocation in mouse RAW264.7 cells assessed as reduction in complex formation pretreated for 30 mins measured after 4 hrs by electrophoretic mobility shift assay. In kind it is cell-based. (A gel shift assay detects complexes by their altered migration in electrophoresis.)

The target is the same in series [8]. As to the kind of experiment: Inhibition of MIF-induced NF-kappaB nuclear translocation in mouse RAW264.7 cells assessed as reduction in complex formation at 40 to 80 uM pretreated for 30 mins measured after 4 hrs by electrophoretic mobility shift assay. In kind it is cell-based.

Active and inactive are the calls of the source. The calls are words filed in the database; no cut-off is given here.

We go through eleven compounds from ChEMBL document CHEMBL1926678, “Synthesis and bio-evaluation of human macrophage migration inhibitory factor inhibitor to develop anti-inflammatory agent” (Bioorg Med Chem, 2011).

Macrophage migration inhibitory factor (Mus musculus), sequence (P34884 2-115 limits assumed): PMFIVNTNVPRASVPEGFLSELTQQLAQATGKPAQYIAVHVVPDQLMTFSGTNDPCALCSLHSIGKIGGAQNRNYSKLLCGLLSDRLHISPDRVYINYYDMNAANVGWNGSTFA

`COC(=O)CC1CC(c2ccc(OC(=O)CC3CC(c4ccc(OC)cc4)=NO3)cc2)=NO1` (configuration not stated): the 50% inhibitory concentration (IC50) in series [1] is 37.2 µM. Regarding `COc1ccc(C2=NOC(CC(=O)O)C2)cc1` (configuration not stated), in series [1], the half-inhibitory concentration (IC50) is 16.7 µM. For `COc1ccc(C2=NOC(C(C)=O)C2)cc1OC` (configuration not stated), in series [1], the IC50 stood at 35.4 µM. Turning to `CCCCOC(=O)CC1CC(c2ccc(OC)cc2)=NO1` (configuration not stated), in series [1], the half-maximal inhibitory concentration (IC50) amounted to 11.2 µM. Same read-out and setting: then `O=C(O)CC1CC(c2ccc(O)cc2)=NO1` (configuration not stated), with 15.2 µM. The same measure, in the same setting: then `COc1cc(C2=NOC(CC(=O)O)C2)ccc1O` (configuration not stated), with 10.2 µM. The same measure, in the same setting: then `COC(=O)C1CC(c2ccc(OC)c(OC)c2)=NO1` (configuration not stated), with 25.2 µM. Regarding `COC(=O)CC1CC(c2ccc(O)cc2)=NO1` (racemic), the inhibition in series [2] amounted to 70%. `COc1ccc(C2=NOC(CC(=O)Oc3cc(C)ccc3C(C)C)C2)cc1` (configuration not stated): the IC50 in series [1] was found to be 55.3 µM. Turning to `COc1cc(C2=NOC(COc3ccc(C=O)cc3)C2)ccc1O` (configuration not stated), the inhibition entry in series [3] and in series [4] was “Active” each time. Further, the Activity entry in series [5] and in series [6] was “Non-toxic” in each case. Further, the IC50 in series [1] came to 7.3 µM. For the same compound, the inhibition entry in series [7] was “Dose-dependent effect”; in series [8] it was 100%. Turning to `COC(=O)CC1CC(c2ccc(OC)cc2)=NO1` (configuration not stated), the half-inhibitory concentration (IC50) in series [1] came out at 19.7 µM.

Broadly, the IC50 is the midpoint of a concentration-inhibition curve. For orientation: inhibition means the share of the control response that was lost under treatment.
